How the values were obtained:
6-OHDA-lesioned rats = experiment: Locomotor activity of juvenile rats with neonatal 6-OHDA lesions (ADHD model); type: in vivo, Sprague-Dawley rat; settings: for motor activity in lesioned rats / effect on lesion-induced hyperactivity (dose dependence): daytime; for hyperactivity in lesioned rats with psychostimulants: daytime 10:00-16:00 h, dose not given; for effect on lesion-induced hyperactivity (dose dependence): i.p., low and high dosage
Source text: For example, behavioral studies of juvenile rats with neonatal 6-hydroxydopamine (6-OHDA) lesions, as is described below, can be used to screen drugs in order to identify candidate drugs for use in the method of the invention. […] As a result, juvenile rats with neonatal 6-OHDA lesions are accepted as a laboratory model for ADHD.
On postnatal day (PD) 5, male Sprague-Dawley rat pups randomly received intracisternal injections of vehicle (“sham-lesioned”) (0.9% NaCl containing 0.1% ascorbic acid) or 6-OHDA hydrobromide (“lesioned”) (100 μg free base) into the brain under hypothermal anesthesia at 45 min after pretreatment with desipramine hydrochloride (20 mg/kg free base) injected subcutaneously (s.c.).
Behavioral effects of neonatal lesions were examined by monitoring locomotor activity at PD 21-30 in a novel environment to provoke exploratory activity. Rats were maintained under a 12-h artificial daylight/dark schedule (on, 07:00-19:00 h), with free access to tap-water and standard rat chow. Motor activity was automatically monitored for 90 min between PD 21 and 30, with a computer-controlled photobeam activity monitoring system (San Diego Instruments, San Diego, Calif.). […] […] Sessions were separated by 48 hours. […] Breaking of consecutive photobeams was scored as locomotion.

D4 receptors [1] = target: T1, D4 receptors (Homo sapiens, UniProt P21917); settings: cited from earlier work
T1 sequence (P21917 1-419): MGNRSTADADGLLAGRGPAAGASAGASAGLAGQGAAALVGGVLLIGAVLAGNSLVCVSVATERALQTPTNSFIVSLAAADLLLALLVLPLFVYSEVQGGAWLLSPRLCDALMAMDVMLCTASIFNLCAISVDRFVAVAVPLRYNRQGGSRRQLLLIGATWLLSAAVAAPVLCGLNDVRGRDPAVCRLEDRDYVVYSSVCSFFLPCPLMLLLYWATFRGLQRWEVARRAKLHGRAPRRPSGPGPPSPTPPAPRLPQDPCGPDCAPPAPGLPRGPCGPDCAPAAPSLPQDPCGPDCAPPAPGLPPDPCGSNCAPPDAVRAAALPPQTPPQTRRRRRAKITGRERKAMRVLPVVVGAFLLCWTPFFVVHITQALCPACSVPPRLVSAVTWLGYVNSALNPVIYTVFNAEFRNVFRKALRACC

sham-lesioned rats = experiment: Locomotor activity of sham-lesioned control rats; type: in vivo, Sprague-Dawley rat; settings: daytime 10:00-16:00 h
Experimental: (§1) On postnatal day (PD) 5, male Sprague-Dawley rat pups randomly received intracisternal injections of vehicle (“sham-lesioned”) (0.9% NaCl containing 0.1% ascorbic acid) or 6-OHDA hydrobromide (“lesioned”) (100 μg free base) into the brain under hypothermal anesthesia at 45 min after pretreatment with desipramine hydrochloride (20 mg/kg free base) injected subcutaneously (s.c.). Lesions of DA in forebrain tissue sections were verified by quantifying DA transporter binding with [^3H]GBR-12935 (1-[2-(diphenylmethoxy)ethyl]-4-(3-phenylpropyl)piperazine) by computed autoradiography at the completion of experiments as an indication of loss of DA nerve terminals in forebrain.
Behavioral effects of neonatal lesions were examined by monitoring locomotor activity at PD 21-30 in a novel environment to provoke exploratory activity. Rats were maintained under a 12-h artificial daylight/dark schedule (on, 07:00-19:00 h), with free access to tap-water and standard rat chow. Motor activity was automatically monitored for 90 min between PD 21 and 30, with a computer-controlled photobeam activity monitoring system (San Diego Instruments, San Diego, Calif.). […] Breaking of consecutive photobeams was scored as locomotion.

D2-like receptors = experiment: Autoradiography of D2-like receptor binding in forebrain after neonatal lesion; type: in vivo, rat
Experimental: as §1
(§2) Rats were sacrificed 2 days after the last behavioral testing for autoradiographic analysis of DA receptor density. Frozen coronal brain sections (10 μm) were prepared in a cryostat at −17° C., thaw-mounted on gelatin-coated microscopic slides and stored at −80° C. until quantitative autoradiographic assays. D2-like receptor binding was assayed with 1 nM [^3H]nemonapride in the presence of 0.5 μM 1,3-ditolylguanidine and 0.1 μM pindolol to block 5-HT1A sites in the brain tissue. Nonspecific binding was determined with 10 μM […]. […] Nonspecific binding was determined with 1 μM cis-flupenthixol.

D4 receptors [2] = experiment: Autoradiography of D4 receptor binding in forebrain after neonatal lesion; type: in vivo, rat
Experimental: as §1, §2

[3] = test system: non-dopaminergic receptors; settings: except 5-HT1A and 5-HT2A; cited from earlier work

Clc1ccc(N2CCN(Cc3c[nH]c4ncccc34)CC2)cc1 [L-745,870, 3-{[4-(4-chlorophenyl)piperazin-1-yl]methyl}-1H-pyrrolo[2,3-b]pyridine]
motor activity in lesioned rats (6-OHDA-lesioned rats; 15 mg/kg i.p.): reversed to a level similar to that found in control rats | selectivity and kind of action at D4 receptors (D4 receptors [1]): highly selective fill antagonist

CC(N)Cc1ccccc1 (single isomer, unassigned; (+)) [(+)-amphetamine]
hyperactivity in lesioned rats with psychostimulants (6-OHDA-lesioned rats): reduced | motor activity in sham-lesioned controls (sham-lesioned rats): greatly increased motor activity

COC(=O)C(c1ccccc1)C1CCCCN1 (racemic) [(±)-methylphenidate]
hyperactivity in lesioned rats with psychostimulants (6-OHDA-lesioned rats): reduced | motor activity in sham-lesioned controls (sham-lesioned rats): greatly increased motor activity

NCCc1cc(O)c(O)cc1O [6-OHDA, 6-hydroxydopamine]
increase of D2-like receptors versus sham (D2-like receptors; lateral CPu): 16.6% | increase of D2-like receptors versus sham (D2-like receptors; medial CPu): 18.3% | increase of D4 receptor binding versus sham (D4 receptors [2]; lateral CPu): 40.3% | increase of D4 receptor binding versus sham (D4 receptors [2]; medial CPu): 35.2%

Fc1ccc(OCC2CCC3CN(c4ncc(F)cn4)CCN3C2)cc1 (stereo not drawn) [CP-293,019, 7R,S-(4-fluoro-phenoxymethyl)-2-(5-fluoro-pyrimidin-2-yl)-octahydropyrido[1,2-α]pyrazine]
motor activity in lesioned rats (6-OHDA-lesioned rats; 30 mg/kg i.p., 90 min session): indistinguishable from sham-lesioned controls | nocturnal hyperactivity in lesioned rats (6-OHDA-lesioned rats; 30 mg/kg, nocturnal 22:00-04:00 h): completely reversed | inhibition at 10 mg/kg (6-OHDA-lesioned rats; Rattus norvegicus, ip, read-out: inhibition of motor activity in lesioned rats): ~40% | effect on lesion-induced hyperactivity (dose dependence) (6-OHDA-lesioned rats): dose-dependent mitigation | affinity for non-dopaminergic receptors [3]: negligible affinity | potency at D4 receptors relative to D2 or other DA receptors (D4 receptors [1]): more than 1000 times | selectivity and kind of action at D4 receptors (D4 receptors [1]): highly D4 receptor-selective, full antagonist

CC[C@@H](CO)NC(=O)[C@@H]1C=C2c3cccc4c3c(cn4C)C[C@H]2N(C)C1 [methysergide]
effect of methysergide alone on lesion-induced hyperactivity (6-OHDA-lesioned rats; 2 mg/kg i.p., 30 min prior to testing): failed to affect | effect of methysergide pretreatment on motor responses to subsequent CP-293,019 (6-OHDA-lesioned rats; methysergide 2 mg/kg i.p. 30 min before CP-293,019 30 mg/kg): did not affect

Fc1ccc2[nH]c(CN3CCN(c4ccccn4)CC3)cc2c1 [CP-226,269]
effect on lesion-induced hyperactivity (dose dependence) (6-OHDA-lesioned rats): dose-dependent exacerbation
